Legend:
[1] = system: inflammatory cytokines (IL-1β, IL-6); assay: LPS acute lung injury model in mice: ELISA of inflammatory cytokines; assay type: in vivo, C57BL/6 mice
Text: The abdomen was opened, and the lungs were removed. They were rinsed twice with pre-chilled PBS. […] P values less than 0.05 were considered statistically significant.

[2] = system: CCl4-induced liver injury; assay: CCl4 acute liver injury model in mice: serum ALT and AST; assay type: in vivo, C57BL/6 mice; details: 3 days (method: U/L)
Text: The drug of the present invention, prepared according to Example 2; Silybin, Shanghai Yuanye Biotechnology Co., Ltd.; Olive oil, Beijing […] Olive Oil Development Center; Analytical grade carbon tetrachloride (CCl4), Shantou Xilong Chemical Factory; Sodium carboxymethyl cellulose (CMC-Na), Guangdong Shantou Xilong Chemical Factory; RNA Isolater Total RNA Extraction Reagent, […] RT Supermix for qPCR, Nanjing Vazyme Biotech Co., Ltd.; AceQ qPCR SYBR Green Master Mix, Shanghai Yeasen Biotechnology Co., Ltd.; Aspartate Transaminase (AST/GOT) Colorimetric Test Kit, Alanine Transaminase (ALT/GPT) Colorimetric Test Kit, Wuhan Elabscience Biotechnology Co., Ltd. • Experimental animals: […] SCXK(Su)2019-002. […] They were acclimated for 7 days before use in experiments. • Experimental Methods: Establishment of Acute Liver Injury Model in Mice and Group-Specific Drug Administration • Mice were randomly assigned to groups. […] One hour after the final drug administration, blood was collected from the retinal venous plexus. […] Serum was aspirated, aliquoted, and stored at -70 °C for future use. After blood collection, euthanize mice by cervical dislocation. Perform laparotomy to remove the liver. Rinse twice with pre-chilled PBS. Excise the left hepatic lobe tissue. […] Store remaining tissue at -70 °C for future use. • Serum AST and ALT Assay: Use 10 μL of each sample for testing. Determine mouse serum AST and ALT levels according to the operating manual. Measure absorbance at 510 nm using an enzyme-linked immunosorbent assay (ELISA) reader. Calculate sample concentration (U/L) based on the standard curve. Data Statistics: All data are expressed as means ± standard error of the mean (S.E.M.). Differences were analyzed for significance using analysis of variance (ANOVA). For groups showing significant differences in ANOVA, one-way ANOVA followed by Dunnett's test was performed to compare intergroup differences.

[3] = system: MC903-induced atopic dermatitis (AD); assay: MC903-induced ear atopic dermatitis mouse model, Compound 1 ointment: ear thickness and dermatitis score; assay type: in vivo, mice; details: for inhibition rate (ear thickness): final day; for Dermatitis Score: ear, score max 12
Protocol: Weigh white petrolatum, light liquid paraffin, glyceryl monostearate, ethylparaben, and cetyl alcohol. Heat to 65 °C while stirring until dissolved. Slowly add the dissolved active pharmaceutical ingredient (API) while continuing to stir until uniformly mixed. Set aside. • (2) Aqueous Phase Preparation: […] Slowly add the aqueous phase to the oil phase while maintaining 65 °C, homogenize, and continue stirring for 30 min; • (4) Cooling: Stop heating, continue stirring, gradually reduce to room temperature, cool to form an ointment, and fill containers. […] Dissolve these substances in a small amount of propylene glycol, then place the resulting solution into the aforementioned pre-cooled blank ointment base. […] Skin Lesion Severity Score: […] Statistical analysis was performed on the data.

[4] = system: CT26 cells; assay type: in vivo, BALB/c mice; details: CT26, oral 80 µmol/kg/day, 3 weeks
[5] = oral gavage 0.1 mg/kg for three days
[6] = oral gavage 1 mg/kg for three days

Question: Which results are given for `C=C1C(=O)O[C@@H]2[C@@H]3[C@]4(CC[C@@]3(C)O)C[C@]4(C)CC[C@@H]12` [compound 1]?
Answer: IL-1β [1, 5]: 1824.88 ± 32.73 pg/mL; IL-6 [1, 5]: 2760.57 ± 288.02 pg/mL; IL-1β [1, 6]: 945.66 ± 36.71 pg/mL; IL-6 [1, 6]: 1314.91 ± 231.08 pg/mL; ALT ([2]; oral 0.1 mg/kg): 173.58 ± 22.75; AST ([2]; oral 0.1 mg/kg): 424.52 ± 175.34; ALT ([2]; oral 1 mg/kg): 104.22 ± 5.21; AST ([2]; oral 1 mg/kg): 237.16±36.70; inhibition rate (ear thickness) ([3]; 0.01% Compound 1 ointment): 71%; ear thickness ([3]; 0.01% ointment, Day 1): 0.14±0.00 mm; ear thickness ([3]; 0.01% ointment, Day 3): 0.17±0.00 mm; ear thickness ([3]; 0.01% ointment, Day 5): 0.21±0.00 mm; ear thickness ([3]; 0.01% ointment, Day 7): 0.22±0.00 mm; ear thickness ([3]; 0.01% ointment, Day 8): 0.23±0.01 mm; ear thickness ([3]; 0.01% ointment, Day 9): 0.23±0.01 mm; ear thickness ([3]; 0.01% ointment, Day 10): 0.25±0.00 mm; ear thickness ([3]; 0.01% ointment, Day 11): 0.26±0.01 mm; ear thickness ([3]; 0.01% ointment, Day 12): 0.26±0.01 mm; ear thickness ([3]; 0.01% ointment, Day 13): 0.22±0.01 mm; ear thickness ([3]; 0.01% ointment, Day 14): 0.21±0.01 mm; inhibition rate (ear thickness) ([3]; 0.1% Compound 1 ointment): 71%; ear thickness ([3]; 0.1% ointment, Day 1): 0.14±0.00 mm; ear thickness ([3]; 0.1% ointment, Day 3): 0.17±0.00 mm; ear thickness ([3]; 0.1% ointment, Day 5): 0.21±0.00 mm; ear thickness ([3]; 0.1% ointment, Day 7): 0.21±0.00 mm; ear thickness ([3]; 0.1% ointment, Day 8): 0.23±0.00 mm; ear thickness ([3]; 0.1% ointment, Day 9): 0.23±0.00 mm; ear thickness ([3]; 0.1% ointment, Day 10): 0.23±0.00 mm; ear thickness ([3]; 0.1% ointment, Day 11): 0.24±0.01 mm; ear thickness ([3]; 0.1% ointment, Day 12): 0.24±0.01 mm; ear thickness ([3]; 0.1% ointment, Day 13): 0.21±0.01 mm; ear thickness ([3]; 0.1% ointment, Day 14): 0.21±0.01 mm; inhibition rate (ear thickness) ([3]; 1% Compound 1 ointment): 80%; ear thickness ([3]; 1% ointment, Day 1): 0.15±0.00 mm; ear thickness ([3]; 1% ointment, Day 3): 0.17±0.00 mm; ear thickness ([3]; 1% ointment, Day 5): 0.21±0.00 mm; ear thickness ([3]; 1% ointment, Day 7): 0.22±0.01 mm; ear thickness ([3]; 1% ointment, Day 8): 0.22±0.01 mm; ear thickness ([3]; 1% ointment, Day 9): 0.23±0.01 mm; ear thickness ([3]; 1% ointment, Day 10): 0.23±0.01 mm; ear thickness ([3]; 1% ointment, Day 11): 0.24±0.00 mm; ear thickness ([3]; 1% ointment, Day 12): 0.23±0.01 mm; ear thickness ([3]; 1% ointment, Day 13): 0.20±0.00 mm; ear thickness ([3]; 1% ointment, Day 14): 0.19±0.00 mm; Dermatitis Score ([3]; 0.01% ointment for 7 days): 3.50±0.22; Dermatitis Score ([3]; 0.1% ointment for 7 days): 2.67±0.21; Dermatitis Score ([3]; 1% ointment for 7 days): 2.33±0.33

Question: How did the antitumor effects [4] turn out when `CN(C)C[C@@H]1C(=O)O[C@H]2[C@H]1CC[C@@]1(C)C[C@]13CC[C@@](C)(O)[C@H]23` [compound 20] was run?
Answer: The antitumor effects was “tumor-inhibiting effects”.

Source: patent publication EP4813381A1, “PHARMACEUTICAL USE OF GUAIANE SESQUITERPENE DERIVATIVE” (Nanjing University Of Chinese Medicine, priority 2023, dated 2025)
